Legend:
[1] = biological target: T1, Serine palmitoylCoA transferase (SPT) (Mus musculus, UniProt O35704+P97363); test: Tissue SPT activity assay, small intestine homogenate of treated mice; type: in vivo; conditions: chow diet plus myriocin for 3 weeks, vs chow controls
T1 construct: from tissue; host or cells: small intestine homogenate of C57BL/6J WT and apoE KO mice fed chow with or without myriocin
T1 sequence (O35704 1-473): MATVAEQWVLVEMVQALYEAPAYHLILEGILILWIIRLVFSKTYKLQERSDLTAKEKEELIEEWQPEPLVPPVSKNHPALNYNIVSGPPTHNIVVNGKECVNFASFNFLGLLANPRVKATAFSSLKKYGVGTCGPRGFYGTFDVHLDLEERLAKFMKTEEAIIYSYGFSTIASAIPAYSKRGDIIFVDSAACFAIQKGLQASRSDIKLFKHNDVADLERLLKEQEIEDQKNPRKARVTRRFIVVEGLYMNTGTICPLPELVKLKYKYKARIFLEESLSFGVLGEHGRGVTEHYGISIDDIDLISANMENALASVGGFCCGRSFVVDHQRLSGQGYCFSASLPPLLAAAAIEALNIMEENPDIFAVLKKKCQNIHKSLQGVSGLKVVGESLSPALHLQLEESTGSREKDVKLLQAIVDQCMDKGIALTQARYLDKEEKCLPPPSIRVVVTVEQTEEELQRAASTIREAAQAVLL
T1 sequence (P97363 1-560): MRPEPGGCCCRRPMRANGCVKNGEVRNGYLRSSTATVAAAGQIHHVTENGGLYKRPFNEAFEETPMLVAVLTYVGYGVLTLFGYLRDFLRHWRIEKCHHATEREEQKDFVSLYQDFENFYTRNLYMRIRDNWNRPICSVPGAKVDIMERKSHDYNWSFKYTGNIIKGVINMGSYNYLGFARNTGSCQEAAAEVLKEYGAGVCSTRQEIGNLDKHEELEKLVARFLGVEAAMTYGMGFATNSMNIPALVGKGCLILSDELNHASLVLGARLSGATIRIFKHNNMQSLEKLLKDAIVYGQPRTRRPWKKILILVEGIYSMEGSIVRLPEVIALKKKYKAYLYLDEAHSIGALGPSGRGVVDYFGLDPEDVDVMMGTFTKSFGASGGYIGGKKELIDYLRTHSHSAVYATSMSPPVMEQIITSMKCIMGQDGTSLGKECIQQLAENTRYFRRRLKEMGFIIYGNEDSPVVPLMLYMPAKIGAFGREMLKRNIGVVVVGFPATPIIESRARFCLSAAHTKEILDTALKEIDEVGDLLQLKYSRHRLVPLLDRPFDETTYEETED
T1 sequence (Q8R207 1-71 partner): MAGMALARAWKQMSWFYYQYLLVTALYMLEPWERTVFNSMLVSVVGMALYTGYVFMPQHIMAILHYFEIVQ
Protocol: FIGS. 1A-1C depict three graphical representations of SPT deficiency decreased SPT activity in mouse small intestine. SPT activity of small intestine homogenate was measured with […] and palmitoyl-coenzyme A as substrates. TLC was performed to separate the product, 3-keto-dihydrosphingosine (KDS, Inset). KDS band was scanned. In FIG. 1A, wildtype (WT) mice fed chow diet or chow diet plus myriocin. In FIG. 1B, apoE KO (knockout)
Mice and diet: Male C57BL/6J and apoE KO (Apolipoprotien E knockout) mice with a C57BL/6J background were obtained from the Jackson Laboratory (Bar Harbor, Me.). Sptlc1 heterozygous KO mice with a C57BL/6 background were created and bred in the inventors' laboratory. Myriocin was mixed with a chow diet. […] The myriocin dose was chosen from a previous dose-dependent experiment with apoE-KO mice. Controls consisted of WT or apoE KO mice fed a chow diet (n=6). Sptlc1 heterozygous KO (Sptlc1^+/−)(n=6) and WT mice were also fed a chow diet.
Tissue SPT activity assay: Mouse small intestine (0.2 g) was homogenized in 0.5 ml of 50 mM Tris-HCl, pH 7.4, 5 mM EDTA, and 250 mM sucrose. SPT activity in the homogenates was measured with [^14C]-serine and palmitoyl-coenzyme A for substrates, as previously described (22), which is incorporated herein by reference in its entirety. […]

[2] = system: triglyceride absorption; test: [3H]triolein-derived counts in plasma (triglyceride absorption); type: in vivo, mouse; conditions: myriocin treated animals (WT, apoE KO), within 24 hours
Protocol: FIGS. 5A-I depict several graphs that illustrate that SPT deficient mice absorbed less cholesterol. Mice (n=6, 10-12 weeks old) were fasted for 5 hours and gavaged with 0.1 microCi [^14C]cholesterol and 0.2 microCi [^3H]sitostanol with 0.5 mg unlabeled cholesterol dissolved in 15 microl of olive oil. Feces were collected after 24 hours and lipids were extracted for counting (FIGS. 5A, 5D, and 5G, cholesterol absorption, WT vs WT/myriocin; apoE KO vs apoE KO/myriocin; WT vs Sptlc1^+/−, respectively). Blood was collected during the 24 hour period (Panels B, E, and H, [^14C]cholesterol in blood, WT vs WT/myriocin; apoE KO vs apoE KO/myriocin; WT vs Sptlc1^+/−, respectively). To test specificity, the mice were gavaged with 0.2 microCi [^3H]triolein together with 0.5 mg/ml cold cholesterol. Blood was collected during the 24 hour period (FIGS. 5C, 5F, and 5I, [^3H] glycerolipids in blood, WT versus WT/myriocin; apoE KO versus apoE KO/myriocin; WT versus Sptlc1^+/−, respectively). Value is mean±SD. *P<0.01.
To investigate whether the effect of SPT deficiency was specific to cholesterol, experimental mice were fed with […] [^3H]triolein instead of [^14C]cholesterol, and blood was collected at different time points within 24 hours.

CCCCCCC(=O)CCCCCC/C=C/C[C@@H](O)[C@H](O)[C@@](N)(CO)C(=O)O [Myriocin, myriocin]
less SPT activity than controls in the small intestine ([1]; WT mice): 60%
less SPT activity than controls in the small intestine ([1]; apoE KO mice): 65%
[3H]triolein-derived counts in the plasma vs controls [2]: No significant changes

— patent US20090264528A1, “SERINE PALMITOYLCOA TRANSFERASE (SPT) INHIBITION BY MYRIOCIN OR GENETIC DEFICIENCY DECREASES CHOLESTEROL ABSORPTION” (The Research Foundation of State University of New York, priority 2008, published 2009)
